How the values were obtained:
[1] = biological target: T1, Avi-KRAS G12D (1-169) GppNHp/RAF1 RBD-3xFLAG (52-151) (Homo sapiens, UniProt P01116, G12D); experiment: Raf1-KRAS G12D-GppNHP disruption HTRF assay (Biological Example 1); format: binding
T1 construct: Avi-KRAS G12D (1-169)
Procedure, shortened: (§1)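 Read-out is HTRF signal of the KRAS–RAF1 RBD complex, reported as percentage of activity relative to DMSO (100%). Protein mix and detection reagents each incubated 1 h at room temperature with 700 rpm shaking. Buffer: 50 mM Tris pH 7.5, 100 mM NaCl, 5 mM MgCl2, 0.1% BSA, 0.01% Tween, 10% DMSO.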

[2] = biological target: T2, Avi-KRAS G12R (1-169) GppNHp/RAF1 RBD-3xFLAG (52-151) (Homo sapiens, UniProt P01116, G12R); experiment: Raf1-KRAS G12R-GppNHP disruption HTRF assay (Biological Example 1); format: binding
T2 construct: Avi-KRAS G12R (1-169)
Procedure, shortened: as §1

[3] = system: GP2d cells (KRAS G12D); experiment: Cell-based pERK HTRF assay in GP2d cell (Biological Example 2); conditions: GP2d (KRAS G12D) cells, pERK HTRF
Procedure, shortened: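 HTRF read-out of pERK (excitation 320 nm, emission 615 nm) after lysates sat 4–24 h at room temperature with Eu cryptate and d2 antibodies.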

[4] = system: SW620 cells (KRAS G12V); experiment: Cell-based pERK HTRF assay in SW620 cell (Biological Example 4); conditions: pERK HTRF
Procedure, shortened: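 SW620 seeded in RPMI/10% FBS, next day dosed 4 h (top 1 μM, half-log, 9 pts, 0.25% DMSO). Lysed, pERK by d2/Eu cryptate HTRF, 4–24 h RT, 615 nm read.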

[5] = biological target: T3, Avi-KRAS G12V (1-169) GppNHp/RAF1 RBD-3xFLAG (52-151) (Homo sapiens, UniProt P01116, G12V); experiment: Raf1-KRAS G12V-GppNHP disruption HTRF assay (Biological Example 1); format: binding
T3 construct: Avi-KRAS G12V (1-169)
Procedure, shortened: as §1

[6] = biological target: T4, Avi-KRAS WT (1-169) GppNHp/RAF1 RBD-3xFLAG (52-151) (Homo sapiens, UniProt P01116); experiment: Raf1-KRAS WT-GppNHP disruption HTRF assay (Biological Example 1); format: binding
T4 construct: Avi-KRAS WT (1-169)
Procedure, shortened: as §1

[7] = Homo sapiens, SW-620, SW620 (KRAS G12V) cells
[8] = KRAS G12D, GppNHp-loaded, class symbols
[9] = KRAS G12R, GppNHp-loaded, class symbols
[10] = Homo sapiens, SW-620, SW620 (KRAS G12V) cells, class symbols
[11] = KRAS G12V, GppNHp-loaded, class symbols
[12] = KRAS WT, GppNHp-loaded, class symbols

T2 sequence (P01116 1-169 isoform P01116-2 G12R): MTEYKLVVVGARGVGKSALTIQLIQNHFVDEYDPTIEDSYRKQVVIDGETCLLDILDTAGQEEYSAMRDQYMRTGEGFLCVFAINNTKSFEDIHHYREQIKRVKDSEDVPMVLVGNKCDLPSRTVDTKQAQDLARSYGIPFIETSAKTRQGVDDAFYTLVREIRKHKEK
T4 sequence (P01116 1-169 isoform P01116-2): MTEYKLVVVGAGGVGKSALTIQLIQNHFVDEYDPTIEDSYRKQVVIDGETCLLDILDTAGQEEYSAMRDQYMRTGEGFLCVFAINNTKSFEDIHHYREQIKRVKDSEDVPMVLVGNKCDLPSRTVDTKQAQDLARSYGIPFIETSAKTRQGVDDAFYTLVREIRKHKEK
T1 sequence (P01116 1-169 isoform P01116-2 G12D): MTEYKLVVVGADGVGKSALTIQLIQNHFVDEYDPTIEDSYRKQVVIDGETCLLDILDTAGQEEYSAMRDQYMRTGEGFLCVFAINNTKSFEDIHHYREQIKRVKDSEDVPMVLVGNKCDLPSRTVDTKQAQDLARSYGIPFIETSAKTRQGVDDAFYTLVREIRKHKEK
T3 sequence (P01116 1-169 isoform P01116-2 G12V): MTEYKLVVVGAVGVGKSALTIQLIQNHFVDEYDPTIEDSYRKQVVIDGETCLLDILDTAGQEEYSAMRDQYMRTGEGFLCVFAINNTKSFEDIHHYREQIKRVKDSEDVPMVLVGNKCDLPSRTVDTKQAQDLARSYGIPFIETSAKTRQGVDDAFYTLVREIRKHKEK

Structure (SMILES)	IC50 ([1]; KRAS G12D-GppNHp/RAF1 RBD HTRF) [nM]	IC50 ([2]; KRAS G12R-GppNHp/RAF1 RBD HTRF) [nM]	IC50 ([3]; GP2d) [nM]	IC50 [4, 7] [nM]	IC50 ([5]; KRAS G12V-GppNHp/RAF1 RBD HTRF) [nM]	IC50 ([6]; KRAS WT-GppNHp/RAF1 RBD HTRF) [nM]	IC50 [1, 8] [nM]	IC50 [2, 9] [nM]	IC50 ([3]; GP2d, class symbols) [nM]	IC50 [4, 10] [nM]	IC50 [5, 11] [nM]	IC50 [6, 12] [nM]	further results
C[C@@H]1[C@H](N(C)c2nc(OC[C@@]34CCCN3C[C@H](F)C4)nc3c(F)c(-c4ccc(F)c5sc(N)c(C#N)c45)c(Cl)cc23)CCN1C(=O)C1CC1 [Compound 401]	100 to 1000	100 to 1000	< 100	< 100	100 to 1000	100 to 1000							
CCN(c1nc(OC[C@@]23CCCN2C[C@H](F)C3)nc2c(F)c(-c3ccc(F)c4sc(N)c(C#N)c34)c(C(F)(F)F)cc12)[C@H]1C[C@@H]2CCC(=O)N2C1 (atropisomer, axis not shown) [Compound 628]							< 100	< 100	< 100	< 100	< 100	< 100	
CCN(c1nc(OC[C@@]23CCCN2C[C@H](F)C3)nc2c(F)c(-c3ccc(F)c4sc(N)c(C#N)c34)c(C(F)(F)F)cc12)[C@@H]1CN2C(=O)OC[C@]2(C)C1 (atropisomer, axis not shown) [Compound 795]							< 100	< 100	< 100	< 100	< 100	< 100	
C[C@@H]1[C@H](N(C)c2nc(OC[C@@]34CCCN3C[C@H](F)C4)nc3c(F)c(-c4ccc(F)c5sc(N)c(C#N)c45)c(Cl)cc23)CCN1C(=O)C1(F)CC1 [Compound 422]	1000 to 10000	1000 to 10000	100 to 1000	100 to 1000	1000 to 10000	1000 to 10000							
C[C@@H]1[C@H](N(C)c2nc(OC[C@@]34CCCN3C[C@H](F)C4)nc3c(F)c(-c4ccc(F)c5sc(N)c(C#N)c45)c(C(F)(F)F)cc23)CCN1C(=O)C(C)(F)F [Compound 459]	100 to 1000	100 to 1000	< 100	< 100	100 to 1000	100 to 1000							
C=C(C)C(=O)N1CC[C@@H](N(C)c2nc(OC[C@@]34CCCN3C[C@H](F)C4)nc3c(F)c(-c4ccc(F)c5sc(N)c(C#N)c45)c(C(F)(F)F)cc23)[C@H]1C [Compound 671]							100 to 1000	100 to 1000	< 100	100 to 1000	100 to 1000	100 to 1000	
CCN(c1nc(OC[C@@]23CCCN2C[C@H](F)C3)nc2c(F)c(-c3ccc(F)c4sc(N)c(C#N)c34)c(C(F)(F)F)cc12)[C@H]1CCN(C(=O)CC#N)C1 (atropisomer, axis not shown) [Compound 546]	< 100	< 100	< 100	< 100	< 100	< 100							
CCN(c1nc(OC[C@@]23CCCN2C[C@H](F)C3)nc2c(F)c(-c3ccc(F)c4sc(N)c(C#N)c34)c(C(F)(F)F)cc12)[C@H]1CCN(C(=O)N2CC(C#N)C2)C1 (atropisomer, axis not shown) [Compound 778]							< 100	< 100	< 100	< 100	< 100	< 100	
CN(CC(F)(F)F)c1nc(OC[C@@]23CCCN2C[C@H](F)C3)nc2c(F)c(-c3ccc(F)c4sc(N)c(C#N)c34)c(C(F)(F)F)cc12 [Compound 165]			< 100	< 100									IC50 ([1]; KRAS G12D, GppNHp-loaded, Table 11): 100 to 1000 nM; IC50 ([2]; KRAS G12R, GppNHp-loaded, Table 11): 100 to 1000 nM; IC50 ([5]; KRAS G12V, GppNHp-loaded, Table 11): 100 to 1000 nM; IC50 ([6]; KRAS WT, GppNHp-loaded, Table 11): 100 to 1000 nM
COC(=O)N1CC[C@H](N(c2nc(OC[C@@]34CCCN3C[C@H](F)C4)nc3c(F)c(-c4ccc(F)c5sc(N)c(C#N)c45)c(C(F)(F)F)cc23)C2CC2)C1 (atropisomer, axis not shown) [Compound 767]							< 100	100 to 1000	< 100	< 100	100 to 1000	100 to 1000	
N#Cc1c(N)sc2c(F)ccc(-c3c(C(F)(F)F)cc4c(N5CC6OCC5C6O)nc(OC[C@@]56CCCN5C[C@H](F)C6)nc4c3F)c12 (stereo partly drawn) [Compound 508]	100 to 1000	100 to 1000	< 100	< 100	100 to 1000	100 to 1000							
CCN(c1nc(OC[C@@]23CCCN2C[C@H](F)C3)nc2c(F)c(-c3ccc(F)c4sc(N)c(C#N)c34)c(C(F)(F)F)cc12)[C@H]1CCN(C(=O)C2(C#N)CC2)C1 [Compound 560]	< 100	< 100	< 100	< 100	< 100	< 100							
CCN(c1nc(OCC23CCCN2CC(F)C3)nc2c(F)c(-c3ccc(F)c4sc(N)c(C#N)c34)c(C(F)(F)F)cc12)C1CCN(C(=O)c2ccccn2)C1 (stereo not drawn) [Compound 737]							< 100	< 100	< 100	< 100	< 100	< 100	
N#Cc1c(N)sc2c(F)ccc(-c3c(Cl)cc4c(N5C[C@H]6C[C@@H]5CO6)nc(OC[C@@]56CCCN5C[C@H](F)C6)nc4c3F)c12 [Compound 364]	100 to 1000	1000 to 10000	< 100	< 100	1000 to 10000	1000 to 10000							
CN(C)C(=O)[C@H]1CC[C@@H](N(C)c2nc(OC[C@@]34CCCN3C[C@H](F)C4)nc3c(F)c(-c4ccc(F)c5sc(N)c(C#N)c45)c(C(F)(F)F)cc23)C1 [Compound 497]	100 to 1000	1000 to 10000	< 100	< 100	1000 to 10000	1000 to 10000							
CC1c2cc(C(=O)N(C)C)nn2CCN1c1nc(OCC23CCCN2CC(F)C3)nc2c(F)c(-c3ccc(F)c4sc(N)c(C#N)c34)c(C(F)(F)F)cc12 (stereo not drawn) [Compound 701]							1000 to 10000	1000 to 10000			1000 to 10000	> 10000	IC50 ([3]; class symbols): < 100 nM; IC50 ([4]; SW620 (KRAS G12V) cells, class symbols): < 100 nM
CN(C)C(=O)N1CC[C@H](N(C)c2nc(OC[C@@]34CCCN3C[C@H](F)C4)nc3c(F)c(-c4ccc(F)c5sc(N)c(C#N)c45)c(C(F)(F)F)cc23)C1 (atropisomer, axis not shown) [Compound 755]							< 100	< 100	< 100	< 100	100 to 1000	100 to 1000	
N#Cc1c(N)sc2c(F)ccc(-c3c(C(F)(F)F)cc4c(N5CC6COC(C6)C5)nc(OC[C@@]56CCCN5C[C@H](F)C6)nc4c3F)c12 (stereo partly drawn) [Compound 292]	100 to 1000	100 to 1000	< 100	< 100	1000 to 10000	100 to 1000							
CN(c1nc(OC[C@@]23CCCN2C[C@H](F)C3)nc2c(F)c(-c3ccc(F)c4sc(N)c(C#N)c34)c(C(F)(F)F)cc12)[C@@H]1CNC(=O)C1 [Compound 340]	100 to 1000	100 to 1000	< 100	100 to 1000	100 to 1000	100 to 1000							
Cc1nnn2c1CN(c1nc(OC[C@@]34CCCN3C[C@H](F)C4)nc3c(F)c(-c4ccc(F)c5sc(N)c(C#N)c45)c(C(F)(F)F)cc13)[C@@H](C)C2 (atropisomer, axis not shown) [Compound 624]							100 to 1000	100 to 1000	< 100	< 100	100 to 1000	100 to 1000	
N#Cc1cc2n(n1)CCN(c1nc(OC[C@@]34CCCN3C[C@H](F)C4)nc3c(F)c(-c4ccc(F)c5sc(N)c(C#N)c45)c(C(F)(F)F)cc13)C2 [Compound 393]	1000 to 10000	> 10000	< 100	< 100	> 10000	> 10000							

From US20260042764A1, “COMPOSITIONS AND METHODS FOR INHIBITION OF KRAS” (TheRas, Inc., priority 2022, published 2026)
